Assay results as given in PMC2929268 (The Journal of organic chemistry, 2010).

Key:
hMC4R [1] = biological target: T1, hMC4R (Homo sapiens, UniProt P32245); experiment: Assay B: europium-based competitive binding assay with probe 18; settings: over the range of concentrations tested
hMC4R [2] = biological target: T1, hMC4R; experiment: Assay A: europium-based competitive binding assay with probe 17; settings: over the range of concentrations tested

T1 sequence (P32245 whole entry): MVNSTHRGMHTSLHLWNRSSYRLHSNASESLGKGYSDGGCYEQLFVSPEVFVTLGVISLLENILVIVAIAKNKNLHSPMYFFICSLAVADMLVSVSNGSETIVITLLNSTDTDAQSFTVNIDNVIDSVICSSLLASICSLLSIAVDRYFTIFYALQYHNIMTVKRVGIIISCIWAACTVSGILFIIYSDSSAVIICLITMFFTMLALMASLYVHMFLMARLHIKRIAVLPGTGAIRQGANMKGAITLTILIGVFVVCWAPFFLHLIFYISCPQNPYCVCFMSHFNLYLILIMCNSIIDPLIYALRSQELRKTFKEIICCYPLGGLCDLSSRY

With CCCCc1cn(CCCCCC(=O)NC(CO)C(N)=O)nn1 (centres unmarked) [Compound 11, N-(1-Amino-3-hydroxy-1-oxopropan-2-yl)-6-(4-butyl-1H-1,2,3-triazol-1-yl)hexanamide] the “blocking probe 18 from binding to hMC4R” value (hMC4R [1]) was “ineffective” and the “blocking probe 17 from binding to hMC4R” value (hMC4R [2]) was “ineffective”.
